Patent US12240811B2, “N-heterocyclic five-membered ring-containing capsid protein assembly inhibitor, pharmaceutical composition and uses thereof” (CHIA TAI TIANQING PHARMACEUTICAL GROUP CO., LTD., priority 2019, dated 2025)

Columns and labels:
[1] = test system: HBV DNA in serum; assay: pAAV/HBV mouse model; assay type: in vivo, C57BL/6 mice; conditions: 3 mpk intragastric once daily
Protocol: 6-8 week old male C57BL/6 mice (Shanghai Lingchang Biotechnology Co., Ltd.) were used, and each mouse was injected with purified recombinant plasmid pAAV/HBV1.2 ([…]) dissolved in PBS equivalent to a volume of about 10% of its body weight through the tail vein within 3-8 s. Blood was collected from the orbits of the mice at 3 days after the plasmid injection to detect serum HBV DNA. The model mice having uniform serum DNA were selected and divided into: a model control group, a vehicle control group, and a test substance group. Mice in each group were continuously administered intragastrically once daily for 10 days at a dose of 3 mg/kg. The mouse serum was taken on day 0, 4, 7, and 10 after the administration, and the mice were sacrificed on day 10 to take liver tissue samples. The HBV DNA copy numbers in serum and liver of the mice were detected by fluorescent quantitative PCR method.

[2] = Stability of liver microsomes in vitro, human; assay type: in vitro ADME
Protocol: (§1) 300 μL of a final incubation system contains 30 μL of liver microsomes (protein concentration: 0.15 mg/mL, Corning), 30 μL NADPH+MgCl2, 3 μL substrate (formulated with acetonitrile), and 237 μL PBS buffer. Duplicate incubation systems of 0.3 mL each were formulated for each species. A total volume of 270 μL of a uniformly mixed solution of the substrate and the enzyme was formulated in each tube, the solution and NADPH were pre-incubated at 37° C. for 5 minutes, respectively. Then 30 μL of the mixed solution of NADPH+MgCl2 was added for reaction. 50 μL of the reaction solution was taken out at 0, 10, 30, and 60 mins, and the reaction was terminated with 300 μL of ice acetonitrile containing an internal standard.
(§2) Sample pre-treatment: To 50 μL of the incubated sample was added 300 μL of ice acetonitrile containing diazepam as an internal standard and then precipitated. After vortexing for 5 minutes, the sample was centrifugated (12000 rpm, 4° C.) for 10 minutes. 75 μL of the supernatant was pipetted into a 96-well plate, and then diluted with 75 μL ultrapure water and mixed uniformly. 0.5 μL of the resulting solution was injected and analyzed by LC-MS/MS.

[3] = test system: HBV DNA in HepG2.2.15 cells; assay: In vitro cell HBV DNA inhibitory activity in HepG2.2.15 cells; assay type: cell-based; conditions: Hepatitis B virus, 144 h, 6 days treatment, intracellular capsid HBV DNA by qPCR, read-out: EC50, anti-HBV activity in HepG2.2.15 cells
Protocol: A bottle of HepG2.2.15 (Wuhan Institute of Virology) or HepAD38 cells in good exponential growth state was taken, washed once by adding 5 mL PBS, and then thereto was added 3 mL trypsin. After digesting at room temperature for 5 min, 2 mL trypsin was discarded, and then the sample was placed in a cell culture incubator and digested for 10 min. The cells were taken out and observed under a microscope (whether the cells were individually round and there was no adhesion between the cells). 10 mL complete medium was added to terminate the digestion. After pipetting into a single cell suspension, 10 μL of the cell suspension was taken out for cell counting with a cell counter, and then diluted with a complete medium and adjusted to a cell density of 1*10^5 cells/mL. […]
Compounds dissolved in DMSO were subjected to two-fold gradient dilution (10 concentrations in total) with complete medium. […] After lysing at room temperature for 10 min, DNA was extracted, and HBV DNA in the intracellular viral capsid was measured by real-time fluorescence quantitative PCR. The inhibition rate was calculated based on the Ct value, and the EC50 value was calculated by the four-parameter method.

[4] = Stability of liver microsomes in vitro, rat; assay type: in vitro ADME
Protocol: as §1, §2

[5] = Stability of liver microsomes in vitro, mouse; assay type: in vitro ADME
Protocol: as §1, §2

## Cc1[nH]c(C(=O)C(=O)N[C@H](C)C(F)(F)F)c(C)c1C(=O)Nc1ccc(F)c(C#N)c1 [Example 2, (R)—N-(3-cyano-4-fluorophenyl)-2,4-dimethyl-5-(2-oxo-2-((1,1,1-trifluoroprop-2-yl)amino)acetyl)-1H-pyrrole-3-carboxamide]
[1]; Day 4
  Reduction levels (log10) of HBV DNA in serum, Day 4: 2.92 log10
[1]; Day 7
  Reduction levels (log10) of HBV DNA in serum, Day 7: 4.09 log10
[1]; Day 10
  Reduction levels (log10) of HBV DNA in serum, Day 10: 2.42 log10
[2]
  Remaining (%) of human liver microsomes at 60 min: 100%
[3]
  EC50: 10.7 nM
[4]
  Remaining (%) of rat liver microsomes at 60 min: 99%
[5]
  Remaining (%) of mouse liver microsomes at 60 min: 100%
